Test results reported in PubChem BioAssay (NCI).
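Briefly, cells in 96-well plates were exposed to five compound concentrations for 48 h, and endpoints were estimated by linear interpolation. The concentration for 50% growth inhibition is given as GI50. TGI denotes the concentration required for complete inhibition of growth.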

Test system: MDA-MB-468 breast
Test: NCI-60 cell line screen, 48 h

**Q.** Which results are given for `COC(=O)Nc1nc2ccc(Oc3ccc(NC(=O)Nc4cccc(C(=O)O)c4)cc3)cc2[nH]1`?
**A.** GI50: 998 nM; TGI: 12800 nM

**Q.** With `CCCN(CCC)C(=O)C1=Cc2ccc(-c3ccc(C(=O)N4CCCC4)cc3)cc2N=C(N)C1` as the compound, how does the GI50 read?
**A.** 2560 nM

**Q.** What about the TGI of the same compound?
**A.** 11800 nM

**Q.** Which results are given for `Cn1cncc1[C@@](N)(c1ccc(Cl)cc1)c1ccc2c(c1)c(-c1cccc(Cl)c1)cc(=O)n2C`?
**A.** GI50: 1690 nM; TGI: 6760 nM

**Q.** `Oc1ccc2cc(Br)ccc2c1-c1c(O)ccc2cc(Br)ccc12` was tested. Which GI50 did it give?
**A.** 3620 nM

**Q.** What about the TGI of the same compound?
**A.** 11700 nM

**Q.** `CC1=C[C@H]2c3c(c(O)c(O)c4oc5c(C)cccc5c(=O)c34)[C@H](c3cc(O)c(O)c4oc5c(C)cccc5c(=O)c34)[C@H]2C(C)(C)C1` was tested. Which GI50 did it give?
**A.** 2620 nM

**Q.** And the TGI?
**A.** 7860 nM

**Q.** How did the GI50 turn out when `CC1(C)CC[C@]23CC[C@]4(C)[C@H](CC[C@@H]5[C@@]6(C)CCCN(CO)C(C)(C)[C@@H]6CC[C@]54C)[C@H]2[C@H]1OC3` was run?
**A.** 1810 nM

**Q.** And the TGI?
**A.** 4180 nM

**Q.** How did the GI50 turn out when `COc1ccc(-c2[nH]c3ccccc3c2C=C(C#N)C#N)cc1` was run?
**A.** 557 nM

**Q.** And the TGI?
**A.** > 100000 nM

**Q.** What does the source list for `CC[C@@H](C(=O)[C@@H](C)[C@@H](O)[C@H](C)[C@@H]1O[C@@H]([C@@H](CC)C(=O)O)CC[C@@H]1C)C1O[C@]2(C=CC(=O)[C@]3(CC[C@@](C)([C@H]4CC[C@](O)(CC)[C@H](C)O4)O3)O2)[C@H](C)C[C@@H]1C` (some centres undefined)?
**A.** GI50: 85.7 nM; TGI: 1960 nM

**Q.** Which results are given for `C[C@@H]1CN(C(=O)c2ccc(NC(=O)c3cc(O[C@H](C)c4c(Cl)ccc(F)c4Cl)c(N)nn3)cc2)C[C@H](C)N1`?
**A.** GI50: 2510 nM; TGI: 9870 nM

**Q.** `Cn1cc(C2=C(c3cccc4ccccc34)C(=O)NC2=O)c2ccccc21` was tested. Which GI50 did it give?
**A.** 8240 nM

**Q.** And the TGI?
**A.** > 25000 nM

**Q.** How did the GI50 turn out when `CC1=CC(=NC(=O)CBr)C=C/C1=N\S(=O)(=O)c1ccccc1` was run?
**A.** 2410 nM

**Q.** What about the TGI of the same compound?
**A.** 8010 nM

**Q.** How did the GI50 turn out when `CN(C)c1ccc(N2Cc3ccccc3OC3=C2C(=O)c2c(O)ccc(O)c2C3=O)cn1` was run?
**A.** 169 nM

**Q.** And the TGI?
**A.** 425 nM
